Where a name gives a salt, the structure may show the parent alone. Read-outs that look alike come from different tables or passages of the source.
How the values were obtained:
Format in all cases: in vivo
[1] = test system: Tetrabenazine-Induced Ptosis; assay: Prevention of Tetrabenazine-Induced Ptosis in Mice; conditions: Mus musculus, read-out: Ed50 (prevention of tetrabenazine-induced ptosis)
Description: The antidepressant activities were evaluated in this invention on the basis of prevention of Tetrabenazine-induced ptosis in mice. The test method and results are described below.
Tetrabenazine (TBZ) induces behavioral depression with concomitant ptosis in mice similar to reserpine. Antidepressant compounds, both monoamineoxidase inhibitors and tricyclics, are known to prevent or antagonize these effects and the degree of antagonism correlates with clinical efficacy. The prevention of TBZ-induced ptosis in mice is used as a preliminary screen for possible antidepressant activity. The method used in this invention is as follows:
Male mice weighing 20 to 30 grams are used in test groups of five subjects. All compounds are dissolved or suspended with a suitable surfactant in distilled water and administered in volumes of 10 ml/kg of body weight. TBZ solution is made from the methanesulfonate salt and the concentration is adjusted to enable administration of 60 mg/kg of base by intraperitoneal (i.p.) injection.
The pretreatment time is measured from the time of dosing to observation. Therefore, when a 30-minute pretreat is utilized, drug and TBZ are given simultaneously. A control group received solvent and TBZ at intervals identical to drug group. For a primary screen, the drug is administered i.p. and a group size of five is utilized. Eight animals/group are used for a dose range.
The total score for each group of five in a primary screen will, therefore, be from 0 to 20 and these scores are used as indications of drug activity.
The vehicle control group score is used as a determinant of the validity of each test. […] The calculation of percent inhibition of ptosis is: [formula]

[2] = test system: Scopolamine Induced Memory Deficit; assay: Dark Avoidance Assay (reversal of scopolamine induced memory deficit); conditions: s.c., mice
Description: In this assay mice are tested for their ability to remember an unpleasant stimulus for a period of 24 hours. A mouse is placed in a chamber that contains a dark compartment; a strong incandescent light drives it to the dark compartment, where an electric shock is administered through metal plates on the floor. The animal is removed from the testing apparatus and tested again, 24 hours later, for the ability to remember the electric shock.
If scopolamine, an anticholinergic that is known to cause memory impairment, is administered before an animal's initial exposure to the test chamber, the animal re-enters the dark compartment shortly after being placed in the test chamber 24 hours later.

[3] = test system: 2-phenyl-1,4-benzoquinone-induced writhing; assay: 2-phenyl-1,4-benzoquinone-induced writhing (PQW) test in mice; conditions: Mus musculus, sc, read-out: ANALGESIC ACTIVITY ED50, POW
Source text: (§1) Compounds I of the present invention are also useful as analgesic agents due to their ability to alleviate pain in mammals. […] Exptl. Biol. Med., 95, 729 (1957)] and in modified Haffner's analgesia.

[4] = test system: sensitivity of mice to pressure stress (artery clip on tail); assay: Modified Haffner's Analgesia (tail clip pressure stress); conditions: Mus musculus, sc, read-out: ANALGESIC ACTIVITY ED50, Modified Haffner's Analgesia
Source text: as §1
The latter assay is used to evaluate analgesic activity by measuring drug-induced changes in the sensitivity of mice to pressure stress by placing an artery clip (21/2 inches long) on their tail. The procedure used is a modification of the test developed by Haffner, Dtsch. Med. Wschr. 55, 731 (1929), and it is described below.
Male mice (Charles River, DC-1), from 18-30 grams are used for the test. An artery clip is applied to the root of the tail of a mouse (approximately 1/2 inch from the body) to induce pain. The animals quickly respond to this noxious stimuli by biting the clip or the location of the clip. This reaction time, the interval between stimulus onset and response, is recorded in 1/10 second increments by a stop watch.
For a time response, the screening dose (25 mg/kg) is administered subcutaneously (10 ml/kg) to the animal receiving food and water ad libitum before testing. Animals receiving the compound orally are fasted 18-24 hours before drug administration. Drug to be tested is prepared with distilled water and if insoluble, one drop of a surfactant is added.
Twenty-eight animals (seven/group) are administered the drug 15, 30, 45 and 60 minutes prior to testing.
The cut-off time (CO) is determined by taking the Xav +3σ of the combined response latencies of the control mice in all time periods where Xav is the average of X and σ is the standard deviation.
Any reaction time, in subsequent drug tests, which is greater than the CO (for the same time period) therefore exceeds 99% of a normal Gaussian distribution and is called "positive response" indicative of analgesic activity. A time response indicates the period of greatest analgesic effect after dosing. The ED50 is determined at the peak time of drug activity. A minimum of three dose groups are used. ED50 's are calculated using computer analysis.

[5] = po, male mice, TBZ 60 mg/kg i.p.
[6] = male mice, at peak time of drug activity
[7] = ip, male mice, TBZ 60 mg/kg i.p.

SMILES	ED50 [1, 5] [mg/kg]	ED50 ([3]; mice) [mg/kg]	ED50 [4, 6] [mg/kg]	also measured
CNCCCN1c2ccccc2CCc2ccccc21 [Desipramine, reference compound]				ED50 ([1]; po): 2.3 mg/kg
O=C(O)/C=C\C(=O)O.c1ccc2c(c1)ccn2Nc1ccncc1 [Example 1, N-(4-Pyridinyl)-1H-indol-1-amine maleate]	3.3	0.86	5.7	% of Animals With Scopolamine Induced Memory Deficit Reversed ([2]; 0.31 mg/kg body weight): 33%
CN(c1ccncc1)n1ccc2ccccc21.O=C(O)/C=C\C(=O)O [Example 2, N-Methyl-N-(4-pyridinyl)-1H-indol-1-amine maleate]	3.3	3.2	16.3	% of Animals With Scopolamine Induced Memory Deficit Reversed ([2]; 0.04 mg/kg body weight): 53%
CCN(c1ccncc1)n1ccc2ccccc21.O=C(O)/C=C\C(=O)O [Example 3, N-Ethyl-N-(4-pyridinyl)-1H-indol-1-amine maleate]	5.6			% of Animals With Scopolamine Induced Memory Deficit Reversed ([2]; 0.63 mg/kg body weight): 33%
CCCN(c1ccncc1)n1ccc2ccccc21.O=C(O)/C=C\C(=O)O [Example 4, N-Propyl-N-(4-pyridinyl)-1H-indol-1-amine maleate]	5.1	5.1	31	% of Animals With Scopolamine Induced Memory Deficit Reversed ([2]; 0.08 mg/kg body weight): 27%
CCCN(c1ccncc1)n1ccc2cc(OC)ccc21.O=C(O)/C=C\C(=O)O [Example 5, 5-Methoxy-N-propyl-N-(4-pyridinyl)-1H-indol-1-amine maleate]	29.8			
CN(c1ccncc1)n1cc(C=O)c2ccccc21 [Example 6, N-Methyl-N-(4-pyridinyl)-1H-indol-1-amine-3-carboxaldehyde maleate]	9.7			
CCN(c1ccncc1)n1cc(C=O)c2ccccc21 [Example 7, N-Ethyl-N-(4-pyridinyl)-1H-indol-1-amine-3-carboxaldehyde maleate]	11.9			
C=Cc1cn(N(C)c2ccncc2)c2ccccc12.O=C(O)/C=C\C(=O)O [Example 10, 3-Ethenyl-N-methyl-N-(4-pyridinyl)-1H-indol-1-amine maleate]		1	1	
CCc1cn(N(C)c2ccncc2)c2ccccc12.Cl [Example 11, 3-Ethyl-N-methyl-N-(4-pyridinyl)-1H-indol-1-amine hydrochloride]		0.9	1	
CN(c1ccncc1)n1ccc2cc([N+](=O)[O-])ccc21.O=C(O)/C=C\C(=O)O [Example 18, N-Methyl-5-nitro-N-(4-pyridinyl)-1H-indol-1-amine maleate]		1		
Cc1cn(Nc2ccncc2)c2ccccc12.O=C(O)C(=O)O [Example 19, 3-Methyl-N-(4-pyridinyl)-1H-indol-1-amine oxalate]		0.4	0.7	ED50 [1, 7]: 1 mg/kg
CCCN(c1ccncc1)n1cc(C)c2ccccc21.O=C(O)/C=C\C(=O)O [Example 20, 3-Methyl-N-propyl-N-(4-pyridinyl)-1H-indol-1-amine maleate]		4.1	1.4	% of Animals With Scopolamine Induced Memory Deficit Reversed ([2]; 0.31 mg/kg body weight): 27%; ED50 [1, 7]: 1.8 mg/kg
CCCN(c1ccncc1F)n1cc(C)c2ccccc21.Cl [Example 22, N-(3-Fluoro-4-pyridinyl)-N-propyl-3-methyl-1H-indol-1-amine hydrochloride]				% of Animals With Scopolamine Induced Memory Deficit Reversed ([2]; 0.31 mg/kg body weight): 33%
C=CCN(c1ccncc1)n1ccc2ccccc21.O=C(O)/C=C\C(=O)O [Example 23, N-(2-Propen-1-yl)-N-(4-pyridinyl)-1H-indol-1-amine maleate]		1.3	3.8	ED50 [1, 7]: 4.2 mg/kg
CC(C)=CCN1CCC2(C)c3cc(O)ccc3CC1C2C (stereo not shown) [Pentazocine, reference compound]				ED50 [3]: 1.3 mg/kg; ED50 [4]: 3.9 mg/kg
CNC(=O)Oc1ccc2c(c1)[C@]1(C)CCN(C)[C@@H]1N2C [Physostigmine, (3aS-cis)-1,2,3,3a,8,8a-hexahydro-1,3a,8-trimethyl-pyrrolo[2,3-b]indol-5-ol, methyl carbamate, reference compound]				% of Animals With Scopolamine Induced Memory Deficit Reversed ([2]; 0.31 mg/kg body weight): 20%

Source: patent US5039811A, “Preparation of N-(pyridinyl)-1H-indol-1-amines” (Hoechst-Roussel Pharmaceuticals Inc., priority 1990, dated 1991)
